Values quoted from earlier work in article PMC11477967, “Review of the Structural Characteristics and Biological Activities of Tricholoma Secondary Metabolites (2018–2023)” (Molecules, 2024).
In brackets after ≈: the same amount, converted by molar mass. Read-outs that look alike come from different tables or passages of the source.

Tests used:
[1] = test system: Pseudomonas aeruginosa; parameters: method as in PMID 26186257
[2] = test system: E. coli; parameters: method as in PMID 26186257
[3] = test system: B. subtilis; parameters: method as in PMID 26186257
[4] = test system: bacteria; parameters: method as in PMID 32534274, PMID 26186257, PMID 34604687, PMID 28794307; details: Table 1 summary
[5] = test system: S. aureus; parameters: method as in PMID 26186257
[6] = test system: MCF-7
[7] = test system: human tumor cell lines; parameters: method as in PMID 29758519, PMID 32534274, PMID 26186257; details: Table 1 summary
[8] = test system: A-549
[9] = test system: S. epidermidis; parameters: method as in PMID 26186257
[10] = test system: MCF7
[11] = test system: L929
[12] = test system: HeLa; parameters: method as in PMID 36480815; details: HeLa cell line
[13] = parameters: method as in PMID 36480815; details: Table 1 summary
[14] = parameters: method as in PMID 36480815; details: among 50-54
[15] = test system: HT29
[16] = test system: H1299
[17] = test system: human cancer cell lines; details: for Bioactivities: Cytotoxic against human cancer cell lines: Table 1 summary; for cytotoxicity rank: among 55, 56, 58, 60, 61, cell line not specified
[18] = test system: PDF; parameters: method as in PMID 36480815; details: PDF cells
[19] = test system: MCF-7; parameters: method as in doi:10.1177/1934578X1801300901
[20] = test system: Caki-1; parameters: method as in PMID 37175274
[21] = test system: Caki-1; parameters: method as in doi:10.1177/1934578X1801300901
[22] = test system: Hep G2; parameters: method as in PMID 37175274
[23] = test system: A-549; parameters: method as in PMID 37175274
[24] = test system: WISH; parameters: method as in doi:10.1177/1934578X1801300901
[25] = test system: MCF-7; parameters: method as in PMID 37175274
[26] = test system: Hep G2; parameters: method as in doi:10.1177/1934578X1801300901; details: said to surpass shikonin
[27] = test system: A549; parameters: method as in doi:10.1177/1934578X1801300901; details: said to surpass shikonin
[28] = test system: HeLa; parameters: method as in PMID 33449279
[29] = test system: caspase-3; parameters: method as in PMID 33449279; details: compared to the control group
[30] = test system: MCF-7; parameters: method as in PMID 33449279; details: MCF-7 cells
[31] = test system: caspase-9; parameters: method as in PMID 33449279; details: compared to the control group
[32] = parameters: method as in doi:10.1016/0040-4039(96)01329-9; details: solutions containing trace inorganic acids
[33] = test system: E. coli; parameters: method as in PMID 28794307
[34] = test system: S. epidermidis; parameters: method as in PMID 28794307
[35] = test system: S. aureus; parameters: method as in PMID 28794307
[36] = test system: Bacillus subtilis; parameters: method as in PMID 28794307

In the case of `CC(C)C(C)C=CC(C)C1CCC2C(=CC(=O)OC3(C)CCC=CC3=O)C(=O)CCC21C` (stereo not drawn) [Compound 40, chaxine C], the “antibacterial activity” value [1] is given as “antibacterial activity”, the “antibacterial activity” value [2] is given as “antibacterial activity” and the “antibacterial activity” value [3] is given as “more significant inhibitory effect”. The “Bioactivities: Antibacterial activity” value [4] was “Antibacterial activity”, the “antibacterial activity” value [5] was “more significant inhibitory effect” and the “selective cytotoxicity” value [6] was “selective toxicity”. For the same molecule, the “Bioactivities: Anti-cancer activity” value [7] was “Anti-cancer activity”, the IC50 [8] was under 10 µM and the “selective cytotoxicity” value [8] was “selective toxicity”. For the same molecule, the “antibacterial activity” value [9] was “antibacterial activity”.
For `CC(C)C(C)/C=C/[C@@H](C)C1CCC2C3=C[C@H](O)[C@@]45C[C@@H](O)CC[C@]4(C)[C@]3(CC[C@@]21C)O5` (stereo partly drawn) [Compound 50, anatoluin A], the “cytotoxic activity” value [10] is listed as “selectively inhibited”, the “toxicity to normal or healthy cell lines” value [11] is listed as “almost no toxicity” and the IC50 [12] is listed as 14.3 ± 1.7 µg/mL (≈ 33.4 µM). For the same molecule, the “Bioactivities: Antioxidant activity” value [13] was “Antioxidant activity”, the “lipid peroxidation inhibitory activity (rank, words)” value [14] was “most active” and the “cytotoxic activity” value [15] was “selectively inhibited”. The “cytotoxic activity” value [16] was “selectively inhibited” and the IC50 ([16]; H1299 cell line) was 34.3 ± 1.1 µg/mL (≈ 80 µM).
For `CC(C)C(C)/C=C/[C@@H](C)C1CCC2C3=C[C@@H](O)[C@@]45C[C@@H](O)CC[C@]4(C)[C@]3(CC[C@@]21C)O5` (stereo partly drawn) [Compound 51, anatoluin B], the “cytotoxic activity” value [10] is given as “selectively inhibited”, the “toxicity to normal or healthy cell lines” value [11] is given as “almost no toxicity” and the “cytotoxic activity” value [17] is given as “good cytotoxic activity”. For the same molecule, the “Bioactivities: Antioxidant activity” value [13] was “Antioxidant activity” and the “cytotoxic activity” value [16] was “selectively inhibited”.
For `CC(C)C(C)/C=C/C(C)C1CCC2C3=CC4OC45C[C@@H](O)CC[C@]5(C)C3CC[C@@]21C` (stereo partly drawn) [Compound 52, 5α,6α-epoxy-ergosta-7,22-dien,3β-ol], the “cytotoxic activity” value [10] is given as “selectively inhibited”, the “toxicity to normal or healthy cell lines” value [11] is given as “almost no toxicity” and the “Bioactivities: Antioxidant activity” value [13] is given as “Antioxidant activity”. For the same molecule, the “cytotoxic activity” value [15] was “selectively inhibited” and the “cytotoxic activity” value [16] was “selectively inhibited”.
In the case of `CC(C)C(C)C=CC(C)C1CCC2C1(C)CCC1C23C=CC2(CC(O)CCC12C)OO3` (stereo not drawn) [Compound 53, ergosterol-endoperoxide], the IC50 ([11]; L929 cells) is given as 65.6 ± 2.2 µg/mL (≈ 153 µM), the IC50 [18] is given as 52.8 ± 0.5 µg/mL (≈ 123 µM) and the “Bioactivities: Cytotoxic against human cancer cell lines” value (shortened to “Bioactivities: Cytotoxic”) [17] is given as “Cytotoxic against human cancer cell lines”. The “Bioactivities: Antioxidant activity” value [13] was “Antioxidant activity” and the “cytotoxic activity” value ([15]; HT29) was “selectively inhibited”.
For `C=C1CCC(CCC2CCC3(OC2)OC2(O)CCC3(C)OC2(C)C)C(C)(C)C1CC=C1C(=O)OCC1O` (stereo not drawn) [Compound 56, saponaceolide A], the “antiproliferative effects” value [19] is given as “strong antiproliferative effects”, the “inhibitory effects” value [20] is given as “notable inhibitory effects” and the “antiproliferative effects” value [21] is given as “strong antiproliferative effects”. The “inhibitory effects” value [22] was “notable inhibitory effects”, the “inhibitory effects” value [23] was “notable inhibitory effects” and the “antiproliferative effects” value [24] was “strong antiproliferative effects”. The “inhibitory effects” value [25] was “notable inhibitory effects”, the “Bioactivities: Cytotoxic” value [17] was “Cytotoxic against human cancer cell lines” and the “cytotoxicity rank” value [17] was “most significant cytotoxicity”. The “antiproliferative effects” value [26] was “strong antiproliferative effects” and the “antiproliferative effects” value [27] was “strong antiproliferative effects”.
For `C=C1CCC(CCC2CCC3(OC2)OC2(O)CCC3(C)OC2(C)C)C(C)(C)C1CC=C1CCOC1=O` (stereo not drawn) [Compound 57, saponaceolide B], the “inhibitory effects” value [20] is given as “notable inhibitory effects”, the “inhibitory effects” value [22] is given as “notable inhibitory effects” and the “inhibitory effects” value [23] is given as “notable inhibitory effects”. The “inhibitory effects” value [25] was “notable inhibitory effects” and the “Bioactivities: Cytotoxic” value [17] was “Cytotoxic against human cancer cell lines”.
In the case of `C=C1CCC(CC=C2CCC3(OC2)OC2(O)CCC3(C)OC2(C)C)C(C)(C)C1CC=C1C(=O)OCC1O` (stereo not drawn) [Compound 60, saponaceolide F], the “antiproliferative effects” value [19] is listed as “strong antiproliferative effects”, the “inhibitory effects” value [20] is listed as “notable inhibitory effects” and the “antiproliferative effects” value [21] is listed as “strong antiproliferative effects”. The “inhibitory effects” value [22] was “notable inhibitory effects”, the “inhibitory effects” value [23] was “notable inhibitory effects” and the “antiproliferative effects” value [24] was “strong antiproliferative effects”. The “inhibitory effects” value [25] was “notable inhibitory effects”, the “Bioactivities: Cytotoxic” value [17] was “Cytotoxic against human cancer cell lines” and the “cytotoxicity rank” value [17] was “most significant cytotoxicity”. For the same molecule, the “antiproliferative effects” value [26] was “strong antiproliferative effects” and the “antiproliferative effects” value [27] was “strong antiproliferative effects”.
For `C=C1CCC(CC=C2CCC3(OC2)OC2(O)CCC3(C)OC2(C)C)C(C)(C)C1CC=C1CCOC1=O` (stereo not drawn) [Compound 62, saponaceolide J], the “inhibitory effects” value [20] is given as “notable inhibitory effects”, the “inhibitory effects” value [22] is given as “notable inhibitory effects” and the “inhibitory effects” value [23] is given as “notable inhibitory effects”. For the same molecule, the “inhibitory effects” value [25] was “notable inhibitory effects” and the “Bioactivities: Cytotoxic” value [17] was “Cytotoxic against human cancer cell lines”.
In the case of `C=C1CCC(CCC2CC=C(C3(C)CCC(=O)C(C)(C)O3)OC2)C(C)(C)C1CC=C1C(=O)OCC1O` (stereo not drawn) [Compound 63, tricholopardin C], the “cytotoxicity” value [28] is given as “cytotoxicity”, the “activation of caspase-3” value [29] is given as “activation” and the “Bioactivities: Cytotoxic” value [17] is given as “Cytotoxic against human cancer cell lines”. For the same molecule, the IC50 [30] was 4.7 µM and the “activation of caspase-9” value [31] was “activation”.
For `C=C1CCC(CCC2CC=C(C3(C)CCC(=O)C(C)(C)O3)OC2)C(C)(C)C1CC=C1CCOC1=O` (stereo not drawn) [Compound 64, tricholopardin D], the “cytotoxicity” value [28] is listed as “cytotoxicity” and the “Bioactivities: Cytotoxic” value [17] is listed as “Cytotoxic against human cancer cell lines”.
In the case of `C=C(C#CC1=CC(OC(C)=O)CC(OC(=O)C(C)=CCCC(=C)C#CC2=CC(OC(C)=O)C3OC3C2=O)C1=O)CCC=C(C)C(=O)O` (stereo not drawn) [Compound 79, tricholomenyn C], the “stability” value [32] is listed as “easily decomposes”.
For `C=CC(O)CCCCC` (stereo not drawn) [Compound 93, 1-octen-3-ol], the “antibacterial activity” value [33] is listed as “strong antibacterial activity”, the “antibacterial activity” value [34] is listed as “strong antibacterial activity” and the “Bioactivities: Antibacterial activity” value [4] is listed as “Antibacterial activity”. The “antibacterial activity” value [35] was “strong antibacterial activity” and the “antibacterial activity” value [36] was “strong antibacterial activity”.
